Experimental data published in PMC3192013 (ChemMedChem, 2011).

Columns and labels:
[1] = system: Stat3 (Stat3–Stat3:DNA complex, EMSA); assay: EMSA, Stat3-Stat3:DNA disruption; assay type: biochemical; conditions: nuclear extract
[2] = system: Stat3 (Stat3–Stat3:DNA complex, EMSA); assay: in vitro Stat3 inhibition; assay type: biochemical; conditions: assay not given

Structure (SMILES)	IC50 [1]	further results
Cc1ccc(S(=O)(=O)N(C)CC(=O)N(Cc2ccc(C#N)cc2)c2ccc(C(=O)O)c(O)c2)cc1 [27c, SF-1-073]	260 ± 47 µM	
Cc1ccc(S(=O)(=O)N(C)CC(=O)N(CC2CCCCC2)c2ccc(C(=O)O)c(O)c2)cc1 [27e, 27 e]	> 300 µM	
Cc1ccc(S(=O)(=O)N(C)CC(=O)N(Cc2ccc(C(C)(C)C)cc2)c2ccc(C(=O)O)c(O)c2)cc1 [27f, SF-1-068]	194 ± 47 µM	
Cc1ccc(S(=O)(=O)N(C)CC(=O)N(CC2CCN(C(=O)OC(C)(C)C)CC2)c2ccc(C(=O)O)c(O)c2)cc1 [27jb, 27 jb]	> 300 µM	
Cc1ccc(S(=O)(=O)N(C)CC(=O)N(CC2CCN(c3ccc(C#N)cc3)CC2)c2ccc(C(=O)O)c(O)c2)cc1 [27jc, 27 jc]	> 300 µM	
Cc1ccc(S(=O)(=O)N(C)CC(=O)N(CC2CCN(c3ncccn3)CC2)c2ccc(C(=O)O)c(O)c2)cc1 [27jd, 27 jd]	> 300 µM	
Cc1ccc(S(=O)(=O)N(C)CC(=O)N(Cc2ccc(C3CCN(C(=O)C(F)(F)F)CC3)cc2)c2ccc(C(=O)O)c(O)c2)cc1 [27ka, 27 ka]	> 300 µM	
Cc1ccc(S(=O)(=O)N(C)CC(=O)N(Cc2ccc(C3CCNCC3)cc2)c2ccc(C(=O)O)c(O)c2)cc1 [27kb, 27 kb]	> 300 µM	
Cc1ccc(S(=O)(=O)N(C)CC(=O)N(Cc2ccc(C3CCN(C(=O)OC(C)(C)C)CC3)cc2)c2ccc(C(=O)O)c(O)c2)cc1 [27kc, 27 kc]	> 300 µM	
Cc1ccc(S(=O)(=O)N(C)CC(=O)N(Cc2ccc(C3CCN(c4ccc(C#N)cc4)CC3)cc2)c2ccc(C(=O)O)c(O)c2)cc1 [27kd, 27 kd]	45 ± 12 µM	
Cc1ccc(S(=O)(=O)N(C)CC(=O)N(Cc2ccc(C3CCN(S(=O)(=O)c4ccc(C#N)cc4)CC3)cc2)c2ccc(C(=O)O)c(O)c2)cc1 [27kg, 27 kg]	50 ± 15 µM	
COC(=O)c1cccc(-c2ccc(CN(C(=O)CN(C)S(=O)(=O)c3ccc(C)cc3)c3ccc(C(=O)O)c(O)c3)cc2)c1 [27la, 27 la]		IC50 ([1]; read-out: [drawing 30] / IC50): 191 ± 8 µM
Cc1ccc(S(=O)(=O)N(C)CC(=O)N(Cc2ccc(-c3cccc(C(N)=O)c3)cc2)c2ccc(C(=O)O)c(O)c2)cc1 [27lc, 27 lc]		IC50 ([1]; read-out: [drawing 30] / IC50): > 300 µM
COC(=O)c1ccc(-c2ccc(CN(C(=O)CN(C)S(=O)(=O)c3ccc(C)cc3)c3ccc(C(=O)O)c(O)c3)cc2)cc1 [27ld, 27 ld]		IC50 ([1]; read-out: [drawing 30] / IC50, label printed 27 gld): 141 ± 10 µM
Cc1ccc(S(=O)(=O)N(C)CC(=O)N(Cc2ccc(-c3ccc(C#N)cc3)cc2)c2ccc(C(=O)O)c(O)c2)cc1 [27lf, 27 lf]		IC50 ([1]; read-out: [drawing 30] / IC50): 274 ± 10 µM
Cc1ccc(S(=O)(=O)N(C)CC(=O)N(Cc2ccc(-c3ccc(C(N)=O)cc3)cc2)c2ccc(C(=O)O)c(O)c2)cc1 [27lg, 27 lg]		IC50 ([1]; read-out: [drawing 30] / IC50): > 300 µM
Cc1ccc(S(=O)(=O)N(C)CC(=O)N(Cc2ccc(-c3ccc(-c4ccc(C(N)=O)cc4)cc3)cc2)c2ccc(C(=O)O)c(O)c2)cc1 [27nh, 27 nh]		IC50 ([1]; read-out: [drawing 31] / IC50): 43 ± 1.3 µM
Cc1ccc(S(=O)(=O)NCC(=O)Nc2ccc(C(=O)O)c(O)c2)cc1 [compound 9, SF-1-082]	> 300 µM	
Cc1ccc(S(=O)(=O)N(C)CC(=O)Nc2ccc(C(=O)O)c(O)c2)cc1 [compound 10, 10]	> 300 µM	
Cc1ccc(S(=O)(=O)N(CC(=O)Nc2ccc(C(=O)O)c(O)c2)C(=O)OC(C)(C)C)cc1 [compound 11, 11]	> 300 µM	
Cc1ccc(S(=O)(=O)OCC(=O)N(Cc2ccccc2)c2ccc(C(=O)O)c(O)c2)cc1 [compound 12, SF-1-120]	> 300 µM	
Cc1ccc(S(=O)(=O)NCC(=O)N(Cc2ccccc2)c2ccc(C(=O)O)c(O)c2)cc1 [compound 13, 13]	> 300 µM	
Cc1ccc(S(=O)(=O)N(C)CC(=O)N(Cc2ccccc2)c2ccc(C(=O)O)c(O)c2)cc1 [compound 14, SF-1-062]		IC50 ([1]; Table 2 prints 295 ± 35): 292 ± 35 µM
Cc1ccc(S(=O)(=O)N(CC(=O)N(Cc2ccccc2)c2ccc(C(=O)O)c(O)c2)C(=O)OC(C)(C)C)cc1 [compound 15, 15]	> 300 µM	
Cc1ccc(S(=O)(=O)NCC(=O)N(Cc2ccc(C3CCCCC3)cc2)c2ccc(C(=O)O)c(O)c2)cc1 [compound 41, SF-1-083]	95 ± 9 µM	
O=C(O)c1ccc(N(Cc2ccc(C3CCCCC3)cc2)C(=O)CO)cc1O [compound 47, primary alcohol 47]		IC50 [2]: > 300 µM
